Source: ChEMBL document CHEMBL1944632, “Synthesis, anti-HBV activity and renal cell toxicity evaluation of mixed phosphonate prodrugs of adefovir” (Eur J Med Chem, 2012)

Tests used:
[1] = test system: Hepatitis B virus; test: Antiviral activity against Hepatitis B virus infected in human HepG2(2.2.15) cells assessed as inhibition of viral replication incubated for 2 days followed by wash out measured after 10 days by RT-PCR analysis; assay type: functional, organism-based
[2] = Cytotoxicity against human HepG2(2.2.15) cells infected with HBV DNA; assay type: cell-based
[3] = Cytotoxicity against human HK2 cells by MTT assay; assay type: cell-based, HK-2
[4] = Nephrotoxicity in human HK2 cells assessed as LDH release at 1 uM measured after 24 hrs; assay type: toxicity, cell-based; details: hk-2, 24 h
[5] = Nephrotoxicity in human HK2 cells assessed as LDH release at 10 uM measured after 24 hrs; assay type: toxicity, cell-based; details: hk-2, 24 h
[6] = Nephrotoxicity in human HK2 cells assessed as LDH release at 100 uM measured after 24 hrs; assay type: toxicity, cell-based; details: hk-2, 24 h
[7] = Chemical stability of the compound assessed as drug decomposition at 1 mM in phosphate buffer at pH 2 after 24 hrs by HPLC analysis; assay type: physicochemical; details: read-out: Drug degradation
[8] = Chemical stability of the compound assessed as drug decomposition at 1 mM in phosphate buffer at pH 7.4 after 24 hrs by HPLC analysis; assay type: physicochemical; details: read-out: Drug degradation
[9] = Half life in rat plasma at 0.2 mg after 24 hrs by HPLC analysis; assay type: ADME
[10] = Selectivity index, ratio of CC50 for HepG2(2.2.15) infected with HBV DNA to EC50 for Hepatitis B virus infected in human HepG2(2.2.15) cells
[11] = test system: Hepatitis B virus; test: Ratio of adefovir dipivoxil to compound EC50 for Hepatitis B virus infected in human HepG2(2.2.15) cells assessed as inhibition of viral replication incubated for 2 days followed by wash out measured after 10 days by RT-PCR analysis; assay type: functional
[12] = Ratio of adefovir dipivoxil SI to compound SI for ratio of CC50 for HepG2(2.2.15) infected with HBV DNA to EC50 for Hepatitis B virus infected in human HepG2(2.2.15) cells; assay type: functional

Row | SMILES | EC50 [1] | CC50 [2] | CC50 [3] | Activity [4] | Activity [5] | Activity [6] | degraded at 24 h, 1000 µM [7] | degraded at 24 h, 1000 µM [8] | half-life [9] | Ratio CC50/EC50 [10] | Ratio EC50 [11] | Ratio [12]
1 | CC[C@H](C)[C@H](N)C(=O)OCCOP(=O)(COCCn1cnc2c(N)ncnc21)OCCCOC(=O)C(C)c1ccc(CC(C)C)cc1 (some centres not stated) | 12.5 µM | 488 µM | > 1000 µM | 36.25% | 36.67% | 40.6% | 12.7% | 9.1% | 0.75 h | 39.11 |  | 
2 | CC(C(=O)OCCCOP(=O)(COCCn1cnc2c(N)ncnc21)OCCOC(=O)[C@@H](N)C(C)C)c1cccc(C(=O)c2ccccc2)c1 (some centres not stated) | 0.51 µM | 866 µM | 840 µM | 37.63% | 38.72% | 44.9% | 11.2% | 8.3% | 2.75 h | 1697.64 | 2 | 4
3 | CC(C(=O)OCCCOP(=O)(COCCn1cnc2c(N)ncnc21)OCCCSC(=O)[C@@H](N)C(C)C)c1cccc(C(=O)c2ccccc2)c1 (some centres not stated) | 26.9 µM | 1050 µM |  |  |  |  |  |  |  | 39.01 |  | 
4 | CC[C@H](C)[C@H](N)C(=O)SCCCOP(=O)(COCCn1cnc2c(N)ncnc21)OCCCOC(=O)C(C)c1ccc(-c2ccccc2)c(F)c1 (some centres not stated) | 36.7 µM | 363 µM |  |  |  |  |  |  |  | 9.88 |  | 
5 | CC(C(=O)OCCCOP(=O)(COCCn1cnc2c(N)ncnc21)OCCCSC(=O)[C@@H](N)Cc1ccccc1)c1cccc(C(=O)c2ccccc2)c1 (some centres not stated) | 29.8 µM | 1000 µM |  |  |  |  |  |  |  | 33.47 |  | 
6 | CC(C)Cc1ccc(C(C)C(=O)OCCCOP(=O)(COCCn2cnc3c(N)ncnc32)OCCCSC(=O)[C@@H](N)C(C)C)cc1 (some centres not stated) | 22.7 µM | 122 µM |  |  |  |  |  |  |  | 5.37 |  | 
7 | CC(C(=O)OCCCOP(=O)(COCCn1cnc2c(N)ncnc21)OCCOC(=O)[C@@H](N)Cc1ccccc1)c1ccc(-c2ccccc2)c(F)c1 (some centres not stated) | 3.34 µM | 568 µM | 906 µM | 34.68% | 35.95% | 42.71% | 14.7% | 10.3% | 2.05 h | 170.21 |  | 
8 | CC(C)Cc1ccc(C(C)C(=O)OCCCOP(=O)(COCCn2cnc3c(N)ncnc32)OCCOC(=O)[C@@H](N)C(C)C)cc1 (some centres not stated) | 8.8 µM | 577 µM | > 1000 µM | 35.41% | 36.25% | 36.87% | 9.6% | 7.8% | 1.5 h | 65.56 |  | 
9 | CC[C@H](C)[C@H](N)C(=O)SCCCOP(=O)(COCCn1cnc2c(N)ncnc21)OCCCOC(=O)C(C)c1cccc(C(=O)c2ccccc2)c1 (some centres not stated) | 44.9 µM | 1000 µM |  |  |  |  |  |  |  | 22.29 |  | 
10 | CC(C)(C)C(=O)OCOP(=O)(COCCn1cnc2c(N)ncnc21)OCOC(=O)C(C)(C)C [ADEFOVIR DIPIVOXIL] | 0.96 µM | 471 µM | 488 µM | 42.32% | 47.49% | 50.02% | 42.5% | 39.1% | 0.52 h | 490.73 |  | 
11 | CC[C@H](C)[C@H](N)C(=O)SCCCOP(=O)(COCCn1cnc2c(N)ncnc21)OCCCOC(=O)C(C)c1ccc(CC(C)C)cc1 (some centres not stated) | 50 µM | 157 µM |  |  |  |  |  |  |  | 3.14 |  | 
12 | CC(C(=O)OCCCOP(=O)(COCCn1cnc2c(N)ncnc21)OCCCSC(=O)[C@@H](N)Cc1ccccc1)c1ccc(-c2ccccc2)c(F)c1 (some centres not stated) | 48.9 µM | 202 µM |  |  |  |  |  |  |  | 4.12 |  | 
13 | CC[C@H](C)[C@H](N)C(=O)OCCOP(=O)(COCCn1cnc2c(N)ncnc21)OCCCOC(=O)C(C)c1ccc(-c2ccccc2)c(F)c1 (some centres not stated) | 2.26 µM | 677 µM | > 1000 µM | 35.89% | 36.95% | 40.52% | 15.3% | 12.6% | 3.5 h | 299.69 |  | 
14 | CC[C@H](C)[C@H](N)C(=O)OCCOP(=O)(COCCn1cnc2c(N)ncnc21)OCCCOC(=O)C(C)c1cccc(C(=O)c2ccccc2)c1 (some centres not stated) | 0.73 µM | 644 µM | 768 µM | 37.85% | 36.92% | 43.51% | 14.9% | 12.5% |  | 881.92 |  | 
